Measured values reported in patent US9040523B2, “Antifungal 5,6-dihydro-4H-pyrrolo[1,2-α][1,4]-benzodiazepines and 6H-pyrrolo[1,2-α][1,4]benzodiazepines substituted with benzene derivatives” (JANSSEN PHARMACEUTICA NV, priority 2010, dated 2015).

Key:
Test in all cases: Human liver microsomal cytochrome P450 cocktail inhibition assay, Protocol C
[1] = molecular target: T1, Cytochrome P450 1A2 (Homo sapiens, UniProt P05177)
T1 sequence (P05177 1-516): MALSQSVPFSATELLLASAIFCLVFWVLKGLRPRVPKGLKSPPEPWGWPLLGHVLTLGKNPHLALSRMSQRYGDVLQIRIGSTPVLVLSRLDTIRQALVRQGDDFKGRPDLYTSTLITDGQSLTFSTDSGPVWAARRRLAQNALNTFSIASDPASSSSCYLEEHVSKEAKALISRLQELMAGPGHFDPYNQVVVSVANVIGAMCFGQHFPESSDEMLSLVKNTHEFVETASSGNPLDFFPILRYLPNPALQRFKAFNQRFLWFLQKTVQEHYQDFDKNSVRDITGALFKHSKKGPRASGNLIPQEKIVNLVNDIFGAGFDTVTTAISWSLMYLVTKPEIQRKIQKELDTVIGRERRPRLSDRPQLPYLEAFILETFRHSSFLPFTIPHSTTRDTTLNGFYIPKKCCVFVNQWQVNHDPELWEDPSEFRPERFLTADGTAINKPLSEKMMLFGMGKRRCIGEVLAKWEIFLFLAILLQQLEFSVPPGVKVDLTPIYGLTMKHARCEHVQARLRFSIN
Protocol: (§1) Probe substrates and final assay concentrations with the appropriate internal standard are outlined in Table 6a.
(§2) Assays were performed in 0.1 M phosphate buffer (pH 7.4), containing 0.2 mg/ml human liver microsomes (BD Gentest) and a probe substrate mix consisting of: phenacetin, tolbutamide, S-mephenyloin, dextromethorphan, amodiaquine and midazolam (Table 6a) and a range of test compound concentrations (0 to 30 micromolar) in a total volume of 100 microliters. After a 10 min pre-incubation at 37° C., the reaction was started with addition of NADPH at a final concentration of 1.0 mM. […] The samples are centrifuged for 10 min at 4° C. at 4000 rpm and 60 microliters supernatant is diluted with 180 microliters water. Each sample is injected onto a UPLC/MS system for the simultaneous measurement of the probe substrate metabolites and their associated deuterated internal standards. Percentage inhibition is calculated according to: %-inhibition=(1−Ri/R)*100, whereby Ri and R are the metabolite to internal standard peak area ratios in the presence and absence of inhibitor respectively.
(§3) Percentage inhibition data are plotted against the Log transformed test compound concentration and after curve fitting the IC50-value is determined.

[2] = molecular target: Cytochrome P450 2C19 (Homo sapiens, UniProt P33261); conditions: 2C19_S-Meph pIC50, human liver microsomes 0.2 mg/ml; probe S-mephenytoin 30 microM
Protocol: as §1, §2, §3

[3] = molecular target: Cytochrome P450 2C9 (Homo sapiens, UniProt P11712); conditions: 2C9 Tolbut pIC50, human liver microsomes 0.2 mg/ml; probe tolbutamide 100 microM
Protocol: as §1, §2, §3

[4] = molecular target: Cytochrome P450 2D6 (Homo sapiens, UniProt P10635); conditions: 2D6_Dextro pIC50, human liver microsomes 0.2 mg/ml; probe dextromethorphan 3 microM
Protocol: as §1, §2, §3

[5] = molecular target: T2, Cytochrome P450 2C8 (Homo sapiens, UniProt P10632); assay type: in vitro ADME; conditions: human liver microsomes 0.2 mg/ml; probe amodiaquine 2 microM; read-out: 2C8_Amod pIC50 (converted)
T2 construct: tissue BD Gentest; host or cells: human liver microsomes
T2 sequence (P10632 1-490): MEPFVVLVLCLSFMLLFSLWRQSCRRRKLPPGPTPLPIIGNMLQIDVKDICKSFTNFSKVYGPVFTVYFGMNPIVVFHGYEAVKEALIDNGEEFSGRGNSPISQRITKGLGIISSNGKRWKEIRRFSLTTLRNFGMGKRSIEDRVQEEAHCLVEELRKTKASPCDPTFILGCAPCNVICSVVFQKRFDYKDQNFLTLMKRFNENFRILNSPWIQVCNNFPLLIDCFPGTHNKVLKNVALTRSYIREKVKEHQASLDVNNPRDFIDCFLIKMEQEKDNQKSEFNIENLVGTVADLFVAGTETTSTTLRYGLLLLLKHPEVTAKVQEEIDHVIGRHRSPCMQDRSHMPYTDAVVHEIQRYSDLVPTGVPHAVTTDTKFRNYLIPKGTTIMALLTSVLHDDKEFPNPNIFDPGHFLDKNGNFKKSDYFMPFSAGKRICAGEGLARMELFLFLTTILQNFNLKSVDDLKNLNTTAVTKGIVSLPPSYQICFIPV
Protocol: as §1, §2, §3

Cytochrome P450 2C19, sequence (P33261 whole entry): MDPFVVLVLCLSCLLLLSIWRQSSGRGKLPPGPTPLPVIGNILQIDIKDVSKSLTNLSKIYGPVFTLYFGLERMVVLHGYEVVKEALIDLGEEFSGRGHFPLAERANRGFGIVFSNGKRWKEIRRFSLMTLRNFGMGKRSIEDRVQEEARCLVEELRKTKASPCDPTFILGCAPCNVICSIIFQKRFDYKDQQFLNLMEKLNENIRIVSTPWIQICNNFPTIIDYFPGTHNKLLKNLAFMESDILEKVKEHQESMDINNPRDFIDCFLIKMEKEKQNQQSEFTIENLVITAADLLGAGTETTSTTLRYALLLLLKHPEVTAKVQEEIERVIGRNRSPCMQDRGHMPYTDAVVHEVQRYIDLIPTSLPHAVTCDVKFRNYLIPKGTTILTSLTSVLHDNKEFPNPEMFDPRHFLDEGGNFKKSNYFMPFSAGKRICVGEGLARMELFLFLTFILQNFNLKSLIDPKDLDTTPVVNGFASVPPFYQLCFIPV
Cytochrome P450 2C9, sequence (P11712 whole entry): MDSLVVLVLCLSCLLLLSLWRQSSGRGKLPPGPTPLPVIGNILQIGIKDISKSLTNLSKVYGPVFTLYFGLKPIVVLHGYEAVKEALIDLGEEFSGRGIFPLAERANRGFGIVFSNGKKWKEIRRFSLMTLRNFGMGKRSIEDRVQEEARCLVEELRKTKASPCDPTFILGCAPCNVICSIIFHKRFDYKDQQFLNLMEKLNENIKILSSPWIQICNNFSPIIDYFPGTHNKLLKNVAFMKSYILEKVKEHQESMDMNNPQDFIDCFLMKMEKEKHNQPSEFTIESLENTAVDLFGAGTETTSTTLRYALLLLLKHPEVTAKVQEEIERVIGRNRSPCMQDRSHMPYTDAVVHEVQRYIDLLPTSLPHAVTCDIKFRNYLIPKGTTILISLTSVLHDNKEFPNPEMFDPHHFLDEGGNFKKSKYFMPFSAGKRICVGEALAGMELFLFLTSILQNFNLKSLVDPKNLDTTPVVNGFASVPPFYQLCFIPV
Cytochrome P450 2D6, sequence (P10635 whole entry): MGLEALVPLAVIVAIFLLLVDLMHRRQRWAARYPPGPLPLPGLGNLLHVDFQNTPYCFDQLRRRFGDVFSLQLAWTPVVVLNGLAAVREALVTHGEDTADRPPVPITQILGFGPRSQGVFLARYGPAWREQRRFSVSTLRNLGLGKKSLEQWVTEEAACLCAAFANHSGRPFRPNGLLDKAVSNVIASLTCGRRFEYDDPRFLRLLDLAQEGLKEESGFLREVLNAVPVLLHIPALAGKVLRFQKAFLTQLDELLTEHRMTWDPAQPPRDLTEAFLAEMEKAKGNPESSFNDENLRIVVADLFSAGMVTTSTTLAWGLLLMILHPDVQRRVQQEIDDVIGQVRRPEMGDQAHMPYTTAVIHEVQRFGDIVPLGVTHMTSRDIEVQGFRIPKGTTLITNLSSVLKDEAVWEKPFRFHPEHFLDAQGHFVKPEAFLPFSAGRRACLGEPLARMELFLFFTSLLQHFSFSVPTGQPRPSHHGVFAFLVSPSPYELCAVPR

CCc1ccc(C2=NCc3c(Cl)cccc3-n3cccc32)cc1 [drawing 92]
IC50 [1]: > 10 µM | IC50 [2]: 1.58 µM | IC50 [3]: > 10 µM | IC50 [4]: > 10 µM | IC50 [5]: > 10 µM

CS(=O)(=O)c1ccc(C2=NCc3c(Cl)cccc3-n3cccc32)cc1 [drawing 93]
IC50 [1]: > 10 µM | IC50 [2]: > 10 µM | IC50 [3]: > 10 µM | IC50 [4]: 7.59 µM | IC50 [5]: > 10 µM

CC(=O)c1ccc(C2NCc3c(Cl)cccc3-n3cccc32)cc1 (stereo not drawn) [drawing 94]
IC50 [1]: > 10 µM | IC50 [2]: 3.16 µM | IC50 [3]: 3.16 µM | IC50 [4]: 3.16 µM

CC(O)c1ccc(C2NCc3c(Cl)cccc3-n3cccc32)cc1 (stereo not drawn) [drawing 97]
IC50 [1]: > 10 µM | IC50 [2]: 5.13 µM | IC50 [3]: > 10 µM | IC50 [4]: > 10 µM | IC50 [5]: > 10 µM

CC(=O)c1cccc(C2NCc3c(Cl)cccc3-n3cccc32)c1 (stereo not drawn) [drawing 99]
IC50 [1]: > 10 µM | IC50 [2]: 0.158 µM | IC50 [3]: 1.58 µM | IC50 [4]: 3.16 µM | IC50 [5]: 7.94 µM
